Test results taken from PubChem BioAssay (NCI).
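Exposure lasted 48 hours, with cells grown in 96-well plates and compounds tested at five concentrations. Definition used: TGI = concentration required for complete inhibition of growth.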

Legend:
Assay in all cases: growth of human tumour cells (NCI), 48 h
DLD-1 colon = tested on: DLD-1 colon
KM20L2 colon = tested on: KM20L2 colon
LXFL 529 NSCLC = tested on: LXFL 529 NSCLC
HOP-18 NSCLC = tested on: HOP-18 NSCLC

## COC1=CC(=O)c2c(O)c3c(c(O)c2C1=O)C[C@](C)(O)C[C@@H]3O
DLD-1 colon
  TGI: 17.2 µM
KM20L2 colon
  TGI: > 100 µM
LXFL 529 NSCLC
  TGI: 14.9 µM

## COc1cccc(NC(=O)CC(=O)NNCC(=O)Nc2nnc(-c3ccc(N(CCC#N)S(=O)(=O)c4ccccc4)cc3)s2)c1
DLD-1 colon
  TGI: > 100 µM
HOP-18 NSCLC
  TGI: > 100 µM
KM20L2 colon
  TGI: > 100 µM
LXFL 529 NSCLC
  TGI: > 100 µM

## CN1Cc2c(nc(-c3ccc(Br)cc3)c[n+]2[O-])N(C)C1
DLD-1 colon
  TGI: > 100 µM
HOP-18 NSCLC
  TGI: > 100 µM
KM20L2 colon
  TGI: > 100 µM
LXFL 529 NSCLC
  TGI: > 100 µM

## COC(=O)C1=C(C)N(NC(=O)c2ccccc2)C2(O)CCCC(=O)C12C (configuration not stated)
DLD-1 colon
  TGI: > 100 µM
KM20L2 colon
  TGI: > 100 µM
LXFL 529 NSCLC
  TGI: > 100 µM

## CN(/N=N/c1nc[nH]c1C(N)=O)C1CCCCC1
DLD-1 colon
  TGI: > 100 µM
KM20L2 colon
  TGI: > 100 µM
LXFL 529 NSCLC
  TGI: > 100 µM
